The assay relates to Pyrenophora teres. As to the kind of experiment: Activity against net blotch of barley caused by Pyrenophora teres, 2-day protective application. It is filed as in vivo. Conditions: individual active compound, barley seedlings cultivar Hanna, inoculated 48 hours after spraying, evaluated after 6 days. The protocol:
The active compounds were used either as a commercial formulation or employed as a stock solution. The stock solution was prepared from 25 mg of active compound which had been made up to 10 ml using a mixture of acetone and/or DMSO as solvent and the emulsifier Uniperol® EL (wetting agent having emulsifying and dispersing action based on ethoxylated alkylphenols) in a volume ratio of solvent to emulsifier of 99:1. The volume was then made up to 100 ml using water.
Evaluation was carried out by visually determining the infected leaf areas in %. These percentages were converted into efficacies in % of the untreated control. At an efficacy of 0, the infection of the treated plants corresponds to that of the untreated control plants; at an efficacy of 100, the treated plants are not infected.
The expected efficacies for active compound combinations were determined using Colby's formula (Colby, S. R., “Calculating synergistic and antagonistic responses of herbicide combinations”, Weeds, 15, pp. 20-22, 1967) and compared to the observed efficacies.
Colby's formula: E=x+y−xy/100
E expected efficacy, expressed in % of the untreated control, when using the mixture of the active compounds A and B at the concentrations a and b x efficacy, expressed in % of the untreated control, when using the active compound A at the concentration a y efficacy, expressed in % of the untreated control, when using the active compound B at the concentration b Activity against net blotch of barley caused by Pyrenophora teres, 2-day protective application Leaves of potted barley seedlings of the cultivar “Hanna” were sprayed to runoff point with an aqueous suspension having the concentration of active compound stated below. 48 hours after the spray coating had dried on, the test plants were inoculated with an aqueous spore suspension of Pyrenophora teres (synonym Drechslera teres), the net blotch pathogen. […] After 6 days, the extent of the development of the disease was determined visually in % infection of the total leaf area.

For the molecule `CC(C)CC(C)c1sccc1NC(=O)c1cn(C)nc1C(F)(F)F` (stereo not drawn) [compound A, N-[2-(1,3-dimethylbutyl)-3-thienyl]-1-methyl-3-(trifluoromethyl)-1H-pyrazole-4-carboxamide], the Efficacy is 22% (4 ppm in the spray liquor, % of the untreated control) and 0.5% (concentration in the spray liquor printed as 0 ppm). Regarding metiram, the Efficacy (250 ppm in the spray liquor) is 0%.
